{
  "source": "patent US20240024273A1",
  "about": "“TOPICAL ADMINISTRATION OF 2-(DIETHYLAMINO)ETHYL 2-(4-ISOBUTYLPHENYL)PROPRIONATE FOR TREATMENT OF DISEASES” (TECHFIELDS PHARMA CO., LTD., priority 2020, published 2024)",
  "assay_type_in_all_cases": "in vivo, human",
  "key": {"[1]": {"system": "osteoarthritis of the knee", "test": "Second Phase 2 study: WOMAC stiffness subscale score", "source_text": "For subjects with bilateral knee pain, both knees will be treated, but the most symptomatic knee (ie, the most painful knee as measured by the Western Ontario and McMaster University Osteoarthritis Index [WOMAC® 3.1] pain subscale score at Screening) will be designated as the target knee for efficacy analyses. For subjects with unilateral knee pain, only the symptomatic (target) knee will be treated.\n(§1) The VAS version of the WOMAC will be used for the Primary and Secondary Efficacy Endpoints. Efficacy endpoints will be assessed at Screening and Baseline (Day 1) and at the Week 2, Week 4, Week 8, and Week 12/EOS visits.\n(§2) 4.9.2. Secondary Efficacy Endpoints: • 1. Change from Baseline in the WOMAC (VAS) pain subscale score for the target knee at 2, 8, and 12 weeks of treatment; • 2. Change from Baseline in the WOMAC (VAS) stiffness subscale scores for the target knee and WOMAC (VAS) functional ability subscale scores at 2, 4, 8, and 12 weeks of treatment; • 3. Change from Baseline in the overall WOMAC (VAS) score at 2, 4, 8, and 12 weeks of treatment; • 4. Subject's global assessment of disease status of the target knee at 2, 4, 8, and 12 weeks of treatment; • 5. Subject's global assessment of response to therapy of the target knee at 2, 4, 8, and 12 weeks of treatment; • 6. Amount of rescue medication (acetaminophen) consumed per day for target knee pain.\n(§3) The Secondary Efficacy Endpoints, change from Baseline in the WOMAC subscale scores for pain, stiffness, and functional ability, and overall WOMAC score at 2, 4, 8, and 12 weeks of treatment, will be analyzed using the same methods as for the Primary Efficacy Endpoint."}, "[2]": {"system": "osteoarthritis of the knee", "test": "Second Phase 2 study: WOMAC difficulty performing daily activities (functional ability) subscale score", "source_text": "This is a Phase 2, multicenter, randomized, double blind (within dose), Ibuprofen-placebo controlled, parallel group, dose range finding study to evaluate the efficacy, safety, and PK of 2-(diethylamino)ethyl 2-(4-isobutylphenyl)propionate spray in adult subjects with clinically symptomatic OA of the knee. For subjects with bilateral knee pain, both knees will be treated, but the most symptomatic knee (ie, the most painful knee as measured by the Western Ontario and McMaster University Osteoarthritis Index [WOMAC® 3.1] pain subscale score at Screening) will be designated as the target knee for efficacy analyses. For subjects with unilateral knee pain, only the symptomatic (target) knee will be treated.\nas §1, §2, §3"}, "[3]": {"system": "osteoarthritis of the knee", "test": "Second Phase 2 study: Subject Global Impression of Change (SGIC)", "details": "Week 12", "source_text": "as §2"}, "[4]": {"system": "osteoarthritis of the knee", "test": "Second Phase 2 study: Investigator's global assessment of disease status (IGADS)", "details": "Week 12"}, "[5]": {"system": "osteoarthritis of the knee", "test": "Second Phase 2 study: Investigator's assessment of response to therapy (IART)", "details": "Week 12", "source_text": "4.9.3. Exploratory Efficacy Endpoints: • 1. Investigator's global assessment of response to therapy of the target knee at 2, 4, 8, and 12 weeks of treatment; • 2. Change from Baseline over time in overall WOMAC (VAS) score for the target knee after the treatment is stopped for 2 weeks."}, "[6]": {"details": "Baseline, oral, 3 × 400 mg (n = 20), first 130 subjects"}, "[7]": {"details": "Week 12, oral, 3 × 400 mg (n = 20), first 130 subjects"}, "[8]": {"details": "all subjects, Oral Ibuprofen 3 × 400 mg, n = 48, Week 12"}, "[9]": {"details": "all subjects, Oral Ibuprofen 3 × 400 mg, n = 48 vs. Placebo n = 48"}, "[10]": {"details": "oral 3×400 mg, first 130 subjects"}, "[11]": {"details": "oral, 3 x 400 mg (n = 20), first 130 subjects"}, "[12]": {"details": "all subjects, Oral Ibuprofen 3 × 400 mg, n = 48"}},
  "data": [
    {"smiles": "CC(C)Cc1ccc(C(C)C(=O)O)cc1", "note": "(centres unmarked) [Ibuprofen, 2-(4-isobutylphenyl)propionic acid, reference compound]", "values": [
      {"measurement": "WOMAC Stiffness Subscale Scores, Baseline (LS Mean)", "setting": "[1]; [6]", "value": 56.4, "unit": "mm"},
      {"measurement": "WOMAC Stiffness Subscale Scores, % of improvement from Placebo", "setting": "[1]; [7]", "value": "−10.3", "unit": "%"},
      {"measurement": "WOMAC Stiffness Subscale Scores, Changes from Baseline (LS Mean)", "setting": "[1]; [7]", "value": "−20.6", "unit": "mm"},
      {"measurement": "WOMAC Stiffness Subscale Scores, Different from placebo (LS Mean)", "setting": "[1]; [7]", "value": "−6.6", "unit": "mm"},
      {"measurement": "WOMAC Stiffness Subscale Scores, Week 12 (LS Mean)", "setting": "[1]; [7]", "value": 35.8, "unit": "mm"},
      {"measurement": "WOMAC Stiffness Subscale Scores, % of improvement from Placebo", "setting": "[1]; [8]", "value": "−6.9", "unit": "%"},
      {"measurement": "WOMAC Stiffness Subscale Scores, % of improvement from baseline", "setting": "[1]; [8]", "value": "−39.3", "unit": "%"},
      {"measurement": "WOMAC Stiffness Subscale Scores, Changes from Baseline (LS Mean)", "setting": "[1]; [8]", "value": "−20.3", "unit": "mm"},
      {"measurement": "WOMAC Stiffness Subscale Scores, Week 12 (LS Mean)", "setting": "[1]; [8]", "value": 31.3, "unit": "mm"},
      {"measurement": "WOMAC Stiffness, difference vs. Placebo", "setting": "[1]; [9]", "value": "−3.8", "unit": "mm"},
      {"measurement": "WOMAC stiffness, difference from placebo", "setting": "[1]; [10]", "value": "−6.7", "unit": "mm"},
      {"measurement": "WOMAC Difficulty Performing Daily Activities Subscale Scores, Baseline (LS Mean)", "setting": "[2]; [6]", "value": 65.5, "unit": "mm"},
      {"measurement": "WOMAC Difficulty Performing Daily Activities Subscale Scores, % of improvement from Placebo", "setting": "[2]; [7]", "value": "−3.3", "unit": "%"},
      {"measurement": "WOMAC Difficulty Performing Daily Activities Subscale Scores, % of improvement from baseline", "setting": "[2]; [7]", "value": "−33.0", "unit": "%"},
      {"measurement": "WOMAC Difficulty Performing Daily Activities Subscale Scores, Changes from Baseline (LS Mean)", "setting": "[2]; [7]", "value": "−21.6", "unit": "mm"},
      {"measurement": "WOMAC Difficulty Performing Daily Activities Subscale Scores, Different from placebo (LS Mean)", "setting": "[2]; [7]", "value": "−3.5", "unit": "mm"},
      {"measurement": "WOMAC Difficulty Performing Daily Activities Subscale Scores, Week 12 (LS Mean)", "setting": "[2]; [7]", "value": 43.9, "unit": "mm"},
      {"measurement": "WOMAC Difficulty Performing Daily Activities Subscale Scores, % of improvement from Placebo", "setting": "[2]; [8]", "value": "−4.3", "unit": "%"},
      {"measurement": "WOMAC Difficulty Performing Daily Activities Subscale Scores, % of improvement from baseline", "setting": "[2]; [8]", "value": "−41.5", "unit": "%"},
      {"measurement": "WOMAC Difficulty Performing Daily Activities Subscale Scores, Changes from Baseline (LS Mean)", "setting": "[2]; [8]", "value": "−25.3", "unit": "mm"},
      {"measurement": "WOMAC Difficulty Performing Daily Activities Subscale Scores, Week 12 (LS Mean)", "setting": "[2]; [8]", "value": 35.7, "unit": "mm"},
      {"measurement": "WOMAC Functional Ability, difference vs. Placebo", "setting": "[2]; [9]", "value": "−3.4", "unit": "mm"},
      {"measurement": "WOMAC functional ability, difference from placebo", "setting": "[2]; [10]", "value": "−3.5", "unit": "mm"},
      {"measurement": "SGIC: Good and Very good", "setting": "[3]; [11]", "value": 55.0, "unit": "%"},
      {"measurement": "SGIC: Poor and Very Poor", "setting": "[3]; [11]", "value": 10.0, "unit": "%"},
      {"measurement": "SGIC: fair", "setting": "[3]; [11]", "value": 35.0, "unit": "%"},
      {"measurement": "SGIC, Good and Very good", "setting": "[3]; [12]", "value": 47.9, "unit": "%"},
      {"measurement": "SGIC, Poor and Very Poor", "setting": "[3]; [12]", "value": 8.3, "unit": "%"},
      {"measurement": "SGIC, fair", "setting": "[3]; [12]", "value": 43.8, "unit": "%"},
      {"measurement": "Subject's satisfaction rate (SGIC good and very good)", "setting": "[3]; oral 3×400 mg/day, first 130 subjects", "value": 55, "unit": "%"},
      {"measurement": "IGADS: Good and Very good", "setting": "[4]; [11]", "value": 40.0, "unit": "%"},
      {"measurement": "IGADS: Poor and Very Poor", "setting": "[4]; [11]", "value": 15.0, "unit": "%"},
      {"measurement": "IGADS: fair", "setting": "[4]; [11]", "value": 45.0, "unit": "%"},
      {"measurement": "IGADS, Good and Very good", "setting": "[4]; [12]", "value": 39.6, "unit": "%"},
      {"measurement": "IGADS, Poor and Very Poor", "setting": "[4]; [12]", "value": 4.1, "unit": "%"},
      {"measurement": "IART: Good and Very good", "setting": "[5]; [11]", "value": 50.0, "unit": "%"},
      {"measurement": "IART: Poor and Very Poor", "setting": "[5]; [11]", "value": 25.0, "unit": "%"},
      {"measurement": "IART: fair", "setting": "[5]; [11]", "value": 25.0, "unit": "%"},
      {"measurement": "IART, Good and Very good", "setting": "[5]; [12]", "value": 47.9, "unit": "%"},
      {"measurement": "IART, Poor and Very Poor", "setting": "[5]; [12]", "value": 8.3, "unit": "%"},
      {"measurement": "IART, fair", "setting": "[5]; [12]", "value": 43.8, "unit": "%"}
    ]}
  ]
}
